Values belong to the molecule of their own block, whether it stands above or below them. Calls of active or inactive are those of the source. The calls are words filed in the database; no cut-off is given here.
How the values were obtained:
[1] = Plasma concentration in Balb/c mouse at 5 mg/kg, iv after 2 hrs by LC-MS analysis; type: ADME, organism-based
[2] = Plasma concentration in Balb/c mouse at 10 mg/kg, po after 7 hrs by LC-MS analysis; type: ADME, organism-based
[3] = Plasma concentration in Balb/c mouse at 5 mg/kg, iv after 0.5 hrs by LC-MS analysis; type: ADME, organism-based
[4] = Half life in ip dosed Balb/c mouse by LC-MS analysis; type: ADME, organism-based; conditions: in vivo
[5] = AUClast in Balb/c mouse at 5 mg/kg, iv by LC-MS analysis; type: ADME, organism-based; parameters: dose 5 mg/kg, time 0 - last, route intravenous; conditions: in vivo
[6] = Plasma concentration in Balb/c mouse at 10 mg/kg, po after 2 hrs by LC-MS analysis; type: ADME, organism-based
[7] = Plasma concentration in Balb/c mouse at 5 mg/kg, iv after 4 hrs by LC-MS analysis; type: ADME, organism-based
[8] = Plasma concentration in Balb/c mouse at 5 mg/kg, iv after 7 hrs by LC-MS analysis; type: ADME, organism-based
[9] = Plasma concentration in Balb/c mouse at 10 mg/kg, po after 0.5 hrs by LC-MS analysis; type: ADME, organism-based
[10] = AUClast in Balb/c mouse at 10 mg/kg, po by LC-MS analysis; type: ADME, organism-based; parameters: dose 10 mg/kg, route oral, time 0 - last; conditions: in vivo
[11] = Plasma concentration in Balb/c mouse at 10 mg/kg, po after 4 hrs by LC-MS analysis; type: ADME, organism-based
A-375 [12] = test: Induction of apoptosis in human A375 cells with USP5 and p53 knock down assessed as increase in Bid protein expression; type: functional, cell-based
SK-MEL19 [13] = test: Increase in protein ubiquitination in human SK-MEL-19 cells after 24 hrs; type: functional, cell-based
A-375 [14] = test: Ratio of IC50 for human A375 cells with USP5 knock down to IC50 for human A375 cells; type: functional
A-375 [15] = test: Induction of apoptosis in human A375 cells with USP5 and p53 knock down assessed as increase in p53 protein expression; type: functional, cell-based
SK-MEL19 [16] = test: Induction of apoptosis in human SK-MEL-19 cells assessed as increase in PARP cleavage after 48 to 72 hrs; type: functional, cell-based
SK-MEL19 [17] = test: Increase in FAS protein expression in human SK-MEL-19 cells after 24 hrs; type: functional, cell-based
A-375 [18] = test: Induction of apoptosis in human A375 cells with USP5 knock down assessed as increase in PARP cleavage; type: functional, cell-based
SK-MEL19 [19] = test: Induction of apoptosis in human SK-MEL-19 cells assessed as increase in caspase 8 cleavage after 48 to 72 hrs; type: functional, cell-based
A-375 [20] = test: Induction of apoptosis in human A375 cells with USP5 knock down assessed as increase in Bax protein expression; type: functional, cell-based
A-375 [21] = test: Induction of apoptosis in human A375 cells with USP5 knock down assessed as increase in p53 protein expression; type: functional, cell-based
SK-MEL19 [22] = test: Reduction in DRS levels in human SK-MEL-19 cells; type: functional, cell-based
A-375 [23] = test: Induction of apoptosis in human A375 cells with USP5 and p53 knock down assessed as increase in FAS protein expression; type: functional, cell-based
A-375 [24] = test: Induction of FAS protein expression in Vemurafenib resistant human A375 cells; type: functional, cell-based
A-375 [25] = test: Induction of apoptosis in human A375 cells with USP5 and p53 knock down assessed as increase in Bax protein expression; type: functional, cell-based
A-375 [26] = test: Induction of apoptosis in human A375 cells with USP5 knock down assessed as increase in Bid protein expression; type: functional, cell-based
A-375 [27] = test: Induction of apoptosis in human A375 cells with USP5 knock down by annexin V staining based flow cytometry; type: functional
A-375 [28] = test: Induction of apoptosis in human A375 cells with USP5 knock down assessed as increase in FAS protein expression; type: functional, cell-based
SK-MEL19 [29] = test: Increase in FASBax protein expression in human SK-MEL-19 cells after 24 hrs; type: functional, cell-based
A-375 [30] = test: Induction of apoptosis in human A375 cells with USP5 and p53 knock down assessed as increase in PARP cleavage; type: functional, cell-based
SK-MEL19 [31] = test: Induction of apoptosis in human SK-MEL-19 cells assessed as increase in Bid protein level after 48 to 72 hrs; type: functional, cell-based

concentration at 2 h [1]: 79.6 to 99.1 ng/mL
concentration at 7 h [2]: 11.4 to 15.9 ng/mL
concentration at 0.5 h [3]: 301 to 397 ng/mL
half-life [4]: 30 to 60 min
AUC(0-t) [5]: 692 to 993 ng·h/mL
concentration at 2 h [6]: 10.6 to 40.6 ng/mL
concentration at 4 h [7]: 33.4 to 63.1 ng/mL
concentration at 7 h [8]: 33.7 to 71.4 ng/mL
concentration at 0.5 h [9]: 50.8 to 117 ng/mL
AUC(0-t) [10]: 126 to 280 ng·h/mL
concentration at 4 h [11]: 13.3 to 30 ng/mL
Structure (SMILES): CCCC(NC(=O)/C(C#N)=C/c1ccc2cccnc2n1)c1ccccc1 (stereo unspecified)

Structure (SMILES): CCCS(=O)(=O)Nc1ccc(F)c(C(=O)c2c[nH]c3ncc(-c4ccc(Cl)cc4)cc23)c1F [VEMURAFENIB]
Activity (A-375 [12]): inactive
Activity (SK-MEL19 [13]): Active
Ratio IC50 (A-375 [14]): 2
Activity (A-375 [15]): inactive
Activity (SK-MEL19 [16]): Active
Activity (SK-MEL19 [17]): Active
Activity (A-375 [18]): Active
Activity (SK-MEL19 [19]): Active
Activity (A-375 [20]): Active
Activity (A-375 [21]): Active
Activity (SK-MEL19 [22]): Active
Activity (A-375 [23]): inactive
Activity (A-375 [24]): inactive
Activity (A-375 [25]): inactive
Activity (A-375 [26]): Active
fold change (FC) (A-375 [27]): >3
Activity (A-375 [28]): Active
Activity (SK-MEL19 [29]): Active
Activity (A-375 [30]): inactive
Activity (SK-MEL19 [31]): Active

— ChEMBL document CHEMBL4257227, “Deubiquitinase inhibitors and methods for use of the same” (2016)
